Data from patent US20240156090A1, “SUSPENSION CONCENTRATE ACYLHYDRAZONE APYRASE INHIBITOR FORMULATION” (Texas Crop Science, priority 2022, published 2024).

Legend:
Assay type in all cases: physicochemical
[1] = Chemical stability as a function of pH in PBS (Example 6); conditions: for remaining amount of Compound 1: 5 μM
Protocol: A working solution of Compound 1 was prepared in dimethyl sulfoxide at a concentration of 500 μM. 2 μL of the working solution and 198 μL of PBS pH 4.5 or PBS pH 7.4 were added into glass vials to achieve a final concentration of 5 μM. The setup was performed in duplicate. Vials were incubated at 37° C. at 60 rpm in a water bath and taken at designated time points of 0, 2, 4, 6 and 24 hours. For each time point, the incubations were terminated with 1000 μL cold acetonitrile containing internal analytical reference standards. Samples were vortexed for 1 minute then centrifuged at RT at 2500 g for 10 minutes. Aliquots of 200 μL of the supernatant were used for LC-MS/MS analysis.

[2] = Solubility of Compound 1 in water
[3] = Long term chemical stability of aqueous suspension concentrate as a function of pH, HPLC (Example 7); conditions: 30 wt % suspension concentrate
Protocol: Method: An aqueous suspension concentrate was prepared with the following composition: 30 wt % Compound 1, 2.5 wt % tristyrylphenol ethoxylate surfactant, 2.0 wt % ethyleneoxide-propyleneoxide block co-polymeric dispersant, 5.0 wt % propylene glycol freeze protectant, 0.1 wt % silicone oil antifoam, 52.4% distilled water, and after 2 hours of milling were added 8.0 wt % viscosity modifier gel comprising 2.0% xanthan and 1.0% biocide in water. Aliquots of this suspension were taken and adjusted to pH 6, 7 and 8 with respectively 10 wt % sulfuric acid, pH10 borate buffer and 10 wt % sodium hydroxide. The three samples were sub-divided and stored at room temperature (RT, approximately 25° C.) and 38° C. Control samples were stored at 0° C. for reference. Aliquots were withdrawn periodically and diluted in acetonitrile for analysis by HPLC.

remaining amount of Compound 1 ([1]; PBS pH 4.5, 37° C., 0 hr): 100% | remaining amount of Compound 1 ([1]; PBS pH 4.5, 37° C., 2 hr): 62.3% | remaining amount of Compound 1 ([1]; PBS pH 4.5, 37° C., 4 hr): 33.7% | remaining amount of Compound 1 ([1]; PBS pH 4.5, 37° C., 6 hr): 29.2% | remaining amount of Compound 1 ([1]; PBS pH 4.5, 37° C., 24 hr): 3.1% | remaining amount of Compound 1 ([1]; PBS pH 7.4, 37° C., 0 hr): 100% | remaining amount of Compound 1 ([1]; PBS pH 7.4, 37° C., 2 hr): 112.4% | remaining amount of Compound 1 ([1]; PBS pH 7.4, 37° C., 4 hr): 96.2% | remaining amount of Compound 1 ([1]; PBS pH 7.4, 37° C., 6 hr): 97.8% | remaining amount of Compound 1 ([1]; PBS pH 7.4, 37° C., 24 hr): 91.1% | half-life at 5 μM ([1]; mildly acidic conditions (PBS pH 4.5), 37° C., read-out: apparent half-life): > 2 h | estimated half-life of actual degradation in solution ([1]; mildly acidic conditions, corrected for solubility below 5 μM): below one | solubility [2]: < 5 µM | amount of Compound 1 remaining ([3]; pH 6 sample as printed in the last sentence of b183, 38° C., 1 month): 99% | amount of Compound 1 remaining ([3]; pH 6 sample as printed in the last sentence of b183, 38° C., 9 months): 103% | amount of Compound 1 remaining ([3]; pH 6 sample, 38° C., 1 month): 103% | amount of Compound 1 remaining ([3]; pH 6 sample, 38° C., 9 months): 94% | amount of Compound 1 remaining ([3]; pH 6 sample, RT, 1 month): 99% | amount of Compound 1 remaining ([3]; pH 6 sample, RT, 9 months): 86% | amount of Compound 1 remaining ([3]; pH 7 sample, 38° C., 1 month): 104% | amount of Compound 1 remaining ([3]; pH 7 sample, 38° C., 9 months): 89% | amount of Compound 1 remaining ([3]; pH 7 sample, RT, 1 month): 103% | amount of Compound 1 remaining ([3]; pH 7 sample, RT, 9 months): 76% | amount of Compound 1 remaining ([3]; pH 8 sample, RT, 1 month): 99% | amount of Compound 1 remaining ([3]; pH 8 sample, RT, 9 months): 102%
SMILES: C/C(=N\NC(=O)c1cccc(C)c1)c1ccc2ccccc2c1 [Compound 1, (E)-3-methyl-N′-(1-(naphthalen-2-yl)ethylidene)benzohydrazide]
